Reference: ChEMBL document CHEMBL5365409, “Novel series of tunable µOR modulators with enhanced brain penetration for the treatment of opioid use disorder, pain and neuropsychiatric indications” (Bioorg Med Chem Lett, 2023)
Activity calls are given as the source filed them. No cut-off for these calls is given here.

What was measured:
Mu-type opioid receptor [1] = target: T1, Mu-type opioid receptor (Homo sapiens, UniProt P35372); experiment: Agonist activity at human mu opioid receptor stably transfected in CHO cells assessed as maximal response by cAMP assay relative to DAMGO; format: functional, cell-based
T1 sequence (P35372 whole entry): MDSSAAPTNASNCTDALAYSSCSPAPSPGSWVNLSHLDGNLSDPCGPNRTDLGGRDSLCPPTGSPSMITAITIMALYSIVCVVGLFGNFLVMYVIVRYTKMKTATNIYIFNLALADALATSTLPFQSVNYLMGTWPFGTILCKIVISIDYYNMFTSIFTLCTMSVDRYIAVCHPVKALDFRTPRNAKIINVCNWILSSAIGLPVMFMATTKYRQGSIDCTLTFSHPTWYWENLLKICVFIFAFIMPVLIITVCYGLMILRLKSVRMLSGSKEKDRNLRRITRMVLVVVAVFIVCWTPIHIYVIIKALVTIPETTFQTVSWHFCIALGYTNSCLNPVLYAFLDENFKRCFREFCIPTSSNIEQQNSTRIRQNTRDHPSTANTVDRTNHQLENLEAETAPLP

[2] = Plasma concentration in Sprague-Dawley rat at 30 mg/kg, po and measured after 1 hr; format: ADME, organism-based
[3] = Drug concentration in Sprague-Dawley rat brain at 30 mg/kg, po and measured after 1 hr; format: ADME, organism-based; conditions: read-out: Ct
[4] = Ratio of drug concentration in brain to plasma of Sprague-Dawley rat at 30 mg/kg, po measured after 1 hr; format: ADME, organism-based
Mu-type opioid receptor [5] = target: T1, Mu-type opioid receptor; experiment: Agonist activity at human mu opioid receptor stably transfected in CHO cells by cAMP assay; format: functional, cell-based
Rattus norvegicus [6] = experiment: Analgesic activity in Sprague-Dawley rat assessed as increase in withdrawal latency at 0.3 to 10 mg/kg, sc by hot plate assay; format: functional, organism-based; conditions: dose 0.3-10 mg/kg, time <= 90.0 min
Rattus norvegicus [7] = experiment: Antianalgesic activity in Sprague-Dawley rat assessed as decrease in (1R,2R)-N-((S)-2-(dimethylamino)-3-(4-hydroxy-2-methylphenyl)propyl)-2-methyl-2-phenylcyclopropane-1-carboxamide induced analgesic effect by measuring withdrawal latency at 10 to 20 mg/kg, sc by hot plate assay; format: functional, organism-based; conditions: dose 10-20 mg/kg
Rattus norvegicus [8] = experiment: Analgesic activity in Sprague-Dawley rat assessed as increase in withdrawal latency at 10 mg/kg, sc by hot plate assay; format: functional, organism-based
Mu-type opioid receptor [9] = target: T1, Mu-type opioid receptor; experiment: Antagonist activity at human mu opioid receptor stably transfected in CHO cells assessed as decrease in DAMGO induced receptor activation by cAMP assay; format: functional, cell-based
Mu-type opioid receptor [10] = target: T1, Mu-type opioid receptor; experiment: Antagonist activity at human mu opioid receptor stably transfected in CHO cells assessed as maximal inhibition of DAMGO induced receptor activation by cAMP assay relative to naltrexone; format: functional, cell-based; conditions: filed as antagonist
[11] = In vivo receptor occupancy at mu opioid receptor in Sprague-Dawley rat brain at 10 mg/kg, sc measured by LC/MS/MS analysis relative to control; format: functional
Rattus norvegicus [12] = experiment: Antianalgesic activity in Sprague-Dawley rat assessed as decrease in (1R,2R)-N-((S)-2-(dimethylamino)-3-(4-hydroxy-2-methylphenyl)propyl)-2-methyl-2-phenylcyclopropane-1-carboxamide induced analgesic effect by measuring withdrawal latency at 10 mg/kg, sc by hot plate assay; format: functional, organism-based

| SMILES | concentration at 1 h [2] [ng/mL] | concentration at 1 h [3] [ng/g] | BPR [4] [%] | EC50 (Mu-type opioid receptor [5]) [nM] | further results |
| --- | --- | --- | --- | --- | --- |
| C[C@@H](CC(=O)NC[C@H](Cc1ccc(O)cc1)N(C)C)c1ccccc1 | 16.9 | 14.4 | 85 |  | Emax (Mu-type opioid receptor [1]; filed as agonist): 68% |
| CN(C)[C@H](CNC(=O)N[C@H](c1ccccc1)C1CC1)Cc1ccc(O)cc1 |  |  |  | 7.3 |  |
| CN(C)[C@@H](CNC(=O)N[C@@H](c1ccccc1)C1CC1)Cc1ccc(O)cc1 |  |  |  | 243 |  |
| CN(C)[C@H](CNC(=O)N[C@@H](c1ccccc1)C1CC1)Cc1ccc(O)cc1 |  |  |  | 104 |  |
| C[C@H](NC(=O)NC[C@H](Cc1ccc(O)cc1)N(C)C)c1ccccc1 | 190 | 33 | 17 | 21 | Emax (Mu-type opioid receptor [1]; filed as agonist): 48% |
| CN(C)[C@H](CNC(=O)[C@@H]1C[C@@]1(C)c1ccccc1)Cc1ccc(O)cc1 | 3.7 | 3.3 | 89 | 0.87 | Emax (Mu-type opioid receptor [1]; filed as agonist): 90%; Activity (Rattus norvegicus [6]): Dose-Dependent Effect |
| Cc1cc(O)cc(C)c1C[C@@H](CNC(=O)[C@@H]1C[C@@]1(C)c1ccccc1)N(C)C |  |  |  | 2 | Emax (Mu-type opioid receptor [1]): 27%; Activity (Rattus norvegicus [7]): Active; Activity (Rattus norvegicus [8]): inactive |
| CN(C)[C@H](CNC(=O)[C@@H]1C[C@]1(C)c1ccccc1)Cc1ccc(O)cc1 |  |  |  | > 3000 | IC50 (Mu-type opioid receptor [9]): 110 nM; Imax (Mu-type opioid receptor [10]): 100%; Activity (Rattus norvegicus [7]): Active; Activity (Rattus norvegicus [8]): inactive |
| C[C@H](CC(=O)NC[C@H](Cc1ccc(O)cc1)N(C)C)c1ccccc1 | 23.3 | 29.2 | 125 |  | Emax (Mu-type opioid receptor [1]; filed as agonist): 68% |
| C[C@@H](OC(=O)NC[C@H](Cc1ccc(O)cc1)N(C)C)c1ccccc1 |  |  |  | 62 |  |
| CN(C)[C@H](CNC(=O)[C@@H]1C[C@]1(C)c1ccccc1)Cc1ccc(O)cc1Cl |  |  |  | > 3000 | IC50 (Mu-type opioid receptor [9]): 29 nM; Imax (Mu-type opioid receptor [10]): 100%; Activity [11]: 70%; Activity (Rattus norvegicus [12]): Active |
| CN(C)[C@H](CNC(=O)O[C@H](c1ccccc1)C1CC1)Cc1ccc(O)cc1 |  |  |  | 770 | Emax (Mu-type opioid receptor [1]): 26% |
| Cc1cc(O)ccc1C[C@@H](CNC(=O)[C@@H]1C[C@@]1(C)c1ccccc1)N(C)C |  |  |  | 0.33 | Emax (Mu-type opioid receptor [1]; filed as agonist): 100% |
| C[C@@H](CC(=O)NC[C@H](Cc1c(F)cc(O)cc1F)N(C)C)c1ccccc1 | 5.4 | 3.9 | 72 |  | Emax (Mu-type opioid receptor [1]): 33% |
| CN(C)[C@H](CNC(=O)[C@H]1C[C@]1(C)c1ccccc1)Cc1ccc(O)cc1 |  |  |  | > 3000 | IC50 (Mu-type opioid receptor [9]): 210 nM; Imax (Mu-type opioid receptor [10]): 100% |
| C[C@H](OC(=O)NC[C@@H](Cc1ccc(O)cc1)N(C)C)c1ccccc1 |  |  |  | > 3000 |  |
| C[C@@H](OC(=O)NC[C@@H](Cc1ccc(O)cc1)N(C)C)c1ccccc1 |  |  |  | 950 |  |
| CN(C)[C@H](CNC(=O)[C@H]1C[C@@]1(C)c1ccccc1)Cc1ccc(O)cc1 |  |  |  | > 3000 | IC50 (Mu-type opioid receptor [9]): > 3000 nM |
| CN(C)[C@@H](CNC(=O)N[C@H](c1ccccc1)C1CC1)Cc1ccc(O)cc1 |  |  |  | 346 |  |
| C[C@H](OC(=O)NC[C@H](Cc1ccc(O)cc1)N(C)C)c1ccccc1 | 149 | 481 | 323 | 180 |  |
